Data on five compounds can be found in patent US8497371B2, “Pipemidic acid derivative autotaxin inhibitors” (University of Memphis Research Foundation, priority 2009, dated 2013).

Assay [1] concerns the target T1, ATX (Homo sapiens, UniProt Q13822). Further details: conditioned serum-free medium (CCM) from MDA-MB-435 cells as the source of ATX; endogenous in cells; host or cells: MDA-MB-435 cells (about 10x concentrated serum-free conditioned medium). The settings on record: 10 μM compound, 1 μM FS-3; earlier screen; cited from earlier work.
For assay [2], the target named is T1, ATX. The experiment in a line: biochemical. The settings on record: Ki.
In assay [3] the target is T1, ATX.
Assay [4] has as its system A2058 cells. In words: A2058 cell migration (scratch closure). It is filed as cell-based. The settings on record: 30 μM inhibitor, 48 hours. As for the experimental part: A2058 cells were seeded in 96-well plates at a density of 50,000 cells per well in complete growth medium (DMEM+10% FBS+penicillin/streptomycin+L-glutamine). Cells were allowed to equilibrate for 24 hours at 37° C. with 5% CO2. Cells were then serum-deprived for 24 hours in DMEM+0.1% BSA+penicillin/streptomycin+L-glutamine (serum-free medium). […] The width of the injury was measured at T0, 4 hours (data not shown), 24 hours (data not shown), and 48 hours (shown above) after injury/treatment using the 10× objective of the phase-contrast microscope and the Micron USB software package. Data represent mean percent closure±SD. n=3 for each experiment. […] However, these reductions were also not statistically significant.

Assay [5] has as its target T1, ATX. The experiment in a line: ATX inhibition assay with FS-3 substrate. Further details: conditioned serum-free medium (CCM) from MDA-MB-435 cells as the source of ATX; endogenous in cells; host or cells: MDA-MB-435 cells (about 10x concentrated serum-free conditioned medium). It is filed as biochemical.
Protocol: ATX inhibition was assayed using the substrate FS-3 (Echelon Biosciences, Inc., Salt Lake City, Utah, USA). The FS-3 assay used ˜10 times concentrated conditioned serum-free medium (CCM) from MDA-MB-435 cells as the source of ATX, while CCM comprised one-third of the total volume.
All assays were performed in 96-well plates with data read at 1 minute intervals by a Synergy2 system (BioTek, Winooski, Vt.). […] Results are shown at one hour, at which point all fluorescence and absorbance changes as a function of time were linear. All readings were normalized to vehicle control after subtraction of fluorescence in the absence of CCM. Data are shown as the mean±S.D. of at least three wells. All experiments were repeated at least twice and results are shown.
The target of assay [6] is T1, ATX. Also noted: conditioned serum-free medium (CCM) from MDA-MB-435 cells as the source of ATX; endogenous in cells; host or cells: MDA-MB-435 cells (about 10x concentrated serum-free conditioned medium). Particulars: cited from earlier work.
The test system of assay [7] is melanoma metastasis. The settings on record: micromolar concentrations; cited from earlier work.

Entries after “also recorded” stand apart in the source; their conditions may differ. Where two headings read alike, the source gives them in different places.

By Ki is commonly meant the dissociation constant of the complex between target and ligand, obtained from inhibition or displacement. Broadly, the IC50 is the midpoint of a concentration-inhibition curve. Higher therefore signals lower potency.

Consider `CCn1cc(C(=O)O)c(=O)c2cnc(N3CCN(C(=S)Nc4cc(Cl)cc(Cl)c4)CC3)nc21` [Compound 1], for which, in assay [1], the “inhibition of ATX-catalyzed hydrolysis of FS-3, initial single concentration screen” value is “fully inhibited”. This compound also returned an inhibitory constant (Ki) in assay [2] of 1.6 µM. The “mechanism of ATX inhibition” value in assay [3] is reported as “mixed-mode”. The “Inhibition Mechanism” value in assay [3] (FS-3 substrate) is on record as “Mixed”. The ATX-stimulated cell migration entry in assay [4] (ATX 100 ng/ml) is reported as “significantly inhibited”. The “LPC+ATX-stimulated cell migration” value in assay [4] (LPC 18:1 10 μM + ATX 100 ng/ml) is listed as “significantly inhibited; also recorded: statistically significant inhibition”. Besides, the LPC-stimulated cell migration result in assay [4] (LPC 18:1 10 μM) is on record as “the reduction was not statistically significant”. In addition, in assay [5] (10 μM compound, FS-3 1 μM), the “block of ATX-mediated hydrolysis of FS-3” value was “completely blocked”. Moreover, the “% Response at 10 μM (FS-3)” value in assay [5] (10 μM compound, FS-3 hydrolysis normalized to vehicle control (low = strong inhibition), mean ± S.D.) was 0.0 ± 4.0%. For the same compound, the IC50 in assay [5] (ATX-mediated FS-3 hydrolysis) came to 1.6 ± 0.4 µM.

With `CCCCCCCCCCCCC/C=C/[C@@H](O)[C@@H](N)COP(=O)(O)O` [Compound S1P, sphingosine 1-phosphate], in assay [6], the “mechanism of inhibition (reported)” value is recorded as “mixed-mode”.

`CCCCCCCCc1ccc(CCC(N)(CO)COP(=O)(O)O)cc1` (stereo not shown) [FTY720-phosphate]: in assay [6], the “mechanism of inhibition (reported)” value is on record as “competitive”. Further, the Ki in assay [6] (read-out: Ki (reported)) was 0.2 µM.

For the compound `N[C@@H](Cc1c[nH]cn1)C(=O)O` [L-histidine], the “mechanism of inhibition (reported)” value in assay [6] is “non-competitive”.

As for `O=[As](O)(O)c1ccc(Cc2ccc([As](=O)(O)O)cc2)cc1` [NSC 48300], the “inhibition of melanoma metastasis” value in assay [7] is listed as roughly 100%. For the same compound, the “mechanism of inhibition (reported)” value in assay [6] is “competitive”.
